Source: PubChem BioAssay AID2719 (The Scripps Research Institute Molecular Screening Center, 2010)

The molecules below were run against Mucolipin-3 (Homo sapiens) (UniProt Q8TDD5) (assay: TRPML3 and related TRP channel activation – cell-based, HEK293 transfected, Fura-2 ratio imaging, selectivity assay for selective TRPML3 agonist project, profiling panel (AID 2719)). Conditions: fura-2 calcium ratio, at 10 µM, active compounds read high; call rule not given here.
Chain of Mucolipin-3 (Homo sapiens) (Q8TDD5 whole entry, looked up): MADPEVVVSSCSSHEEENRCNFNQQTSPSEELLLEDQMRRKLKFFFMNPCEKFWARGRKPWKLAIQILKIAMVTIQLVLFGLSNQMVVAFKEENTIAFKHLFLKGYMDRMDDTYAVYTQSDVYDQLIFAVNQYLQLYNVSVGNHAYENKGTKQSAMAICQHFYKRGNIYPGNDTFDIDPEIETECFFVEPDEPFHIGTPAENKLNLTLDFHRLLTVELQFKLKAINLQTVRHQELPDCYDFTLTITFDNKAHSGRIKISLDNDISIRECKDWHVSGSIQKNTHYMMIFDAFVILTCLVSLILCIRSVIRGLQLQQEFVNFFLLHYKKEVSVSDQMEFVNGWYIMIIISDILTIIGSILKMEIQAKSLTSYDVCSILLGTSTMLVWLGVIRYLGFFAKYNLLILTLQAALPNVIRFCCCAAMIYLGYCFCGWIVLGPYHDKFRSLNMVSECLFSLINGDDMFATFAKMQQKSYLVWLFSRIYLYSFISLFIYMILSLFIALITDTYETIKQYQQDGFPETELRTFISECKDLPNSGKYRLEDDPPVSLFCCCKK

fura-2 ratio change (340/380), active:
CC1CCN(S(=O)(=O)c2ccc(C(C)C)cc2)CC1 0.52, CCOc1ccc(S(=O)(=O)N2CCCCCC2)c2ccccc12 1, Cc1ccc(S(=O)(=O)n2nccc2-c2c(-c3ccc(Cl)cc3)noc2C)cc1 0.72
